Experimental data from patent publication US9802960B2 (MILLENNIUM PHARMACEUTICALS, INC., priority 2014, dated 2017).

Target: Human VPS34 (Homo sapiens (Human), UniProt Q8NEB9)
Assay: Human VPS34 enzyme assay (Adapta TR-FRET)
Format: biochemical
Details: for inhibition at 1.11 µM: compound concentration 1.11 μM, read-out: Percent Inhibition; for IC50: IC50 range class

Sequence of Human VPS34 (Q8NEB9 whole entry): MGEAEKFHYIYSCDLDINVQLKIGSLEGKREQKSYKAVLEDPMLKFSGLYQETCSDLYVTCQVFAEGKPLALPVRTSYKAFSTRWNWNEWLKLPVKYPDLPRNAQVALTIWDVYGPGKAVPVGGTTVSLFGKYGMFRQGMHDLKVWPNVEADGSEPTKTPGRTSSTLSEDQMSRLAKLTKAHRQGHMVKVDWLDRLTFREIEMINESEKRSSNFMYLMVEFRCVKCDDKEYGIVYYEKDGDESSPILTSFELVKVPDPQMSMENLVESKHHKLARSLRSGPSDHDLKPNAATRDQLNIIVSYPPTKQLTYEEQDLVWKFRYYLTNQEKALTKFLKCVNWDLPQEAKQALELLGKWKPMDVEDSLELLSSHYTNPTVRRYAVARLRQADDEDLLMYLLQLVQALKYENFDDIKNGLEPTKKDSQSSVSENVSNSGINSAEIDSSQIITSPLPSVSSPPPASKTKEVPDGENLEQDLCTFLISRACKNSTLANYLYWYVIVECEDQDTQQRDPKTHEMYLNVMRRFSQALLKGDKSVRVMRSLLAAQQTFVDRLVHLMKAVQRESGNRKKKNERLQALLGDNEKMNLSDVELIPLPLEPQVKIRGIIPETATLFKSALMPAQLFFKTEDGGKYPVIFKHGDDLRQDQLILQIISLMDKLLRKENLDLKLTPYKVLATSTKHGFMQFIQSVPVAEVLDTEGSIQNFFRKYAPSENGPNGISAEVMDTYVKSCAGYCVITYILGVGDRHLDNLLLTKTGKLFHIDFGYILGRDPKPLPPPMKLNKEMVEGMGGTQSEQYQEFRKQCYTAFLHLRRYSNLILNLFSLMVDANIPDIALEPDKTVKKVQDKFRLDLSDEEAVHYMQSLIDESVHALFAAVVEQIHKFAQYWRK

Row | inhibition at 1.11 µM [%] | IC50 [nM] | SMILES
1 | > 99 |  | CC(=O)Nc1cc(-c2cnc(C)c(N3CC(N(C)C)CS3(=O)=O)c2)ccn1 (single isomer, unassigned) [Compound I-496, N-(5-(4-(dimethylamino)-1,1-dioxidoisothiazolidin-2-yl)-6-methyl-[3,4′-bipyridin]-2′-yl)acetamide]
2 | > 99 |  | CC(=O)Nc1cc(-c2cnc(C)c(N3CC(N(C)C)CS3(=O)=O)c2)ccn1 (single isomer, unassigned) [Compound I-497, (R or S)—N-(5-(4-(dimethylamino)-1,1-dioxidoisothiazolidin-2-yl)-6-methyl-[3,4′-bipyridin]-2′-yl)acetamide]
3 | > 99 |  | CCN(CC)C(=O)c1cc(-c2ccnc(NC(C)=O)c2)cnc1N [Compound I-27, 2′-acetamido-6-amino-N,N-diethyl-3,4′-bipyridine-5-carboxamide]
4 | > 99 |  | CC(=O)Nc1cc(-c2cnc(C)c(NS(=O)(=O)c3cc(C)ccc3F)c2)ccn1 [Compound I-28, N-(5-{[(2-fluoro-5-methylphenyl)sulfonyl]amino}-6-methyl-3,4′-bipyridin-2′-yl)acetamide]
5 | > 99 |  | CC(=O)Nc1cc(-c2cnc3c(c2)N(CC2CC2)S(=O)(=O)N3)ccn1 [Compound I-29, N-{4-[1-(cyclopropylmethyl)-2,2-dioxido-1,3-dihydro[1,2,5]thiadiazolo[3,4-b]pyridin-6-yl]pyridin-2-yl}acetamide]
6 | > 99 |  | CC(=O)Nc1cc(-c2cnc(C)c(NS(=O)(=O)c3ccc(Cl)cc3Cl)c2)ccn1 [Compound I-30, N-(5-{[(2,4-dichlorophenyl)sulfonyl]amino}-6-methyl-3,4′-bipyridin-2′-yl)acetamide]
7 | > 99 |  | CC(=O)Nc1cc(-c2cnc(C)c(NS(=O)(=O)N(C)C)c2)ccn1 [Compound I-32, N-{5-[(dimethylsulfamoyl)amino]-6-methyl-3,4′-bipyridin-2′-yl}acetamide]
8 | > 99 |  | CC(=O)Nc1cc(-c2cnc3ccn(S(C)(=O)=O)c3c2)ccn1 [Compound I-33, N-{4-[1-(methylsulfonyl)-1H-pyrrolo[3,2-b]pyridin-6-yl]pyridin-2-yl}acetamide]
9 | > 99 |  | COC(=O)Nc1cc(-c2cnc(N)c(S(=O)(=O)C(C)C)c2)ccn1 [Compound I-34, methyl[6-amino-5-(isopropylsulfonyl)-3,4′-bipyridin-2′-yl]carbamate]
10 | > 99 |  | CC(=O)Nc1cc(-c2cnc(N)c(NCC3CC3)c2)ccn1 [Compound I-35, N-{6-amino-5-[(cyclopropylmethyl)amino]-3,4′-bipyridin-2′-yl}acetamide]
11 | > 99 |  | COC(=O)Nc1cc(-c2cnc(N)c(S(=O)(=O)N3CCCC3)c2)ccn1 [Compound I-36, methyl[6-amino-5-(pyrrolidin-1-ylsulfonyl)-3,4′-bipyridin-2′-yl]carbamate]
12 | > 99 |  | CC(=O)Nc1cc(-c2cnc(N)c(S(=O)(=O)N(C)c3ccccc3)c2)ccn1 [Compound I-37, N-{6-amino-5-[methyl(phenyl)sulfamoyl]-3,4′-bipyridin-2′-yl}acetamide]
13 | > 99 |  | COC(=O)Nc1cc(-c2cnc3[nH]ncc3c2)ccn1 [Compound I-38, Methyl [4-(1H-pyrazolo[3,4-b]pyridin-5-yl)pyridin-2-yl]carbamate]
14 | > 99 |  | COc1ncc(-c2ccnc(NC(C)=O)c2)cc1S(=O)(=O)Nc1ccccc1 [Compound I-39, N-[6-methoxy-5-(phenylsulfamoyl)-3,4′-bipyridin-2′-yl]acetamide]
15 | > 99 |  | CC(=O)Nc1cc(-c2cnc3[nH]cc(S(=O)(=O)N(C)C)c3c2)ccn1 [Compound I-40, N-{4-[3-(dimethylsulfamoyl)-1H-pyrrolo[2,3-b]pyridin-5-yl]pyridin-2-yl}acetamide]
16 | > 99 |  | CC(=O)Nc1cc(-c2cnc(C)c(NS(=O)(=O)c3ccc(F)cc3F)c2)ccn1 [Compound I-41, N-(5-{[(2,4-difluorophenyl)sulfonyl]amino}-6-methyl-3,4′-bipyridin-2′-yl)acetamide]

Continued, compound first:

Row | SMILES | inhibition at 1.11 µM [%] | IC50 [nM]
17 | Cc1ncc(-c2ccnc(NC(=O)C3CC3(F)F)c2)cc1NS(=O)(=O)c1ccc(F)cc1F (racemic) [Compound I-16, (rac)-N-(5-{[(2,4-difluorophenyl)sulfonyl]amino}-6-methyl-3,4′-bipyridin-2′-yl)-2,2-difluorocyclopropanecarboxamide] | > 99 | 
18 | CC(=O)Nc1cc(-c2cnc(C)c(NS(=O)(=O)c3ccc(C(F)(F)F)nc3)c2)ccn1 [Compound I-1, N-[6-methyl-5-({[6-(trifluoromethyl)pyridin-3-yl]sulfonyl}amino)-3,4′-bipyridin-2′-yl]acetamide] | > 99 | 
19 | CC(=O)Nc1cc(-c2cnc3cnn(S(=O)(=O)C4CC4)c3c2)ccn1 [Compound I-2, N-{4-[1-(cyclopropylsulfonyl)-1H-pyrazolo[4,3-b]pyridin-6-yl]pyridin-2-yl}acetamide] | > 99 | 
20 | CC(=O)Nc1cc(-c2cnc(N)c(S(=O)(=O)Cc3ccc4ccccc4c3)c2)ccn1 [Compound I-3] | 87 | 
21 | Cc1cnc(NC(=O)C2CC2)cc1-c1cnc(C)c(NS(=O)(=O)c2ccc(F)cc2F)c1 [Compound I-4, N-(5-{[(2,4-difluorophenyl)sulfonyl]amino}-5′,6-dimethyl-3,4′-bipyridin-2′-yl)cyclopropanecarboxamide] | > 99 | 
22 | CC(=O)Nc1cc(-c2cnc(N)c(S(=O)(=O)Cc3ccccc3)c2)ccn1 [Compound I-6, N-[6-amino-5-(benzylsulfonyl)-3,4′-bipyridin-2′-yl]acetamide] | > 99 | 
23 | CC(=O)Nc1cc(-c2cnc(N)c(S(=O)(=O)NC(C)C)c2)ccn1 [Compound I-7, N-[6-amino-5-(isopropylsulfamoyl)-3,4′-bipyridin-2′-yl]acetamide] | > 99 | < 10
24 | CC(=O)Nc1cc(-c2cncc(C(=O)C3CC3)c2)ccn1 [Compound I-8, N-[5-(cyclopropylcarbonyl)-3,4′-bipyridin-2′-yl]acetamide] | > 99 | 
25 | CC(=O)Nc1cc(-c2cncc(S(=O)(=O)N3CCC(F)(F)CC3)c2)ccn1 [Compound I-9, N-{5-[(4,4-difluoropiperidin-1-yl)sulfonyl]-3,4′-bipyridin-2′-yl}acetamide] | > 99 | 
26 | CC(=O)Nc1cc(-c2cnc(N)c(C(=O)N3CCCCC3)c2)ccn1 [Compound I-10, N-[6-amino-5-(piperidin-1-ylcarbonyl)-3,4′-bipyridin-2′-yl]acetamide] | > 99 | 
27 | CC(=O)Nc1cc(-c2cnc(N)c(S(=O)(=O)NC34CC(C3)C4)c2)ccn1 [Compound I-11, N-[6-amino-5-(bicyclo[1.1.1]pent-1-ylsulfamoyl)-3,4′-bipyridin-2′-yl]acetamide] | > 99 | 
28 | CC(=O)Nc1cc(-c2cncc(NS(=O)(=O)c3ccc(F)cc3F)c2)ccn1 [Compound I-12, N-(5-{[(2,4-difluorophenyl)sulfonyl]amino}-3,4′-bipyridin-2′-yl)acetamide] | > 99 | 
29 | CC(=O)Nc1cc(-c2cncc(NC(=O)c3ccccc3)c2)ccn1 [Compound I-13, N-(2′-acetamido-3,4′-bipyridin-5-yl)benzamide] | 81 | 
30 | CC(=O)Nc1cc(-c2cnc(N)c(C(=O)NCC3CC3)c2)ccn1 [Compound I-14, 2′-acetamido-6-amino-N-(cyclopropylmethyl)-3,4′-bipyridine-5-carboxamide] | > 99 | 
31 | CC(=O)Nc1cc(-c2cnc(N)c(C(=O)N3CCCC3)c2)ccn1 [Compound I-15, N-[6-amino-5-(pyrrolidin-1-ylcarbonyl)-3,4′-bipyridin-2′-yl]acetamide] | > 99 | 
32 | CC(=O)Nc1cc(-c2cnc3cc[nH]c3c2)ccn1 [Compound I-17, N-[4-(1H-pyrrolo[3,2-b]pyridin-6-yl)pyridin-2-yl]acetamide] | > 99 | 
33 | CC(=O)Nc1cc(-c2cnc(C)c(NS(=O)(=O)c3cn(C)nc3C(F)(F)F)c2)ccn1 [Compound I-18, N-[6-methyl-5-({[1-methyl-3-(trifluoromethyl)-1H-pyrazol-4-yl]sulfonyl}amino)-3,4′-bipyridin-2′-yl]acetamide] | > 99 | 
34 | CC(=O)Nc1cc(-c2cnc(N)c(S(=O)(=O)NCc3cccnc3)c2)ccn1 [Compound I-19, N-{6-amino-5-[(pyridin-3-ylmethyl)sulfamoyl]-3,4′-bipyridin-2′-yl}acetamide] | > 99 | 50 to 100
35 | CC(=O)Nc1cc(-c2cncc(N(C)S(C)(=O)=O)c2)ccn1 [Compound I-20, N-{5-[methyl(methylsulfonyl)amino]-3,4′-bipyridin-2′-yl}acetamide] | > 99 | 
36 | CC(=O)Nc1cc(-c2cnc3c(c2)S(=O)(=O)N(C)CN3)ccn1 [Compound I-21, N-[4-(2-methyl-1,1-dioxido-3,4-dihydro-2H-pyrido[2,3-e][1,2,4]thiadiazin-7-yl)pyridin-2-yl]acetamide] | > 99 | 
37 | CNc1ncc(-c2ccnc(NC(C)=O)c2)cc1C(=O)N(C)C [Compound I-22, 2′-acetamido-N,N-dimethyl-6-(methylamino)-3,4′-bipyridine-5-carboxamide] | > 99 | 
38 | CC(=O)Nc1cc(-c2cnc3ccn(S(=O)(=O)c4ccccc4)c3c2)ccn1 [Compound I-23, N-{4-[1-(phenylsulfonyl)-1H-pyrrolo[3,2-b]pyridin-6-yl]pyridin-2-yl}acetamide] | > 99 | 
39 | CC(=O)Nc1cc(-c2cnc(N)c(S(=O)(=O)N3CCOCC3)c2)ccn1 [Compound I-24, N-[6-amino-5-(morpholin-4-ylsulfonyl)-3,4′-bipyridin-2′-yl]acetamide] | > 99 | 
40 | CC(=O)Nc1cc(-c2cnc(N(C)C)c(NS(=O)(=O)c3ccc(F)cc3F)c2)ccn1 [Compound I-25, N-[5-{[(2,4-diflurophenyl)sulfonyl]amino}-6-(dimethylamino)-3,4′-bipyridin-2′-yl]acetamide] | > 99 | 
41 | CCN(c1cc(-c2ccnc(NC(C)=O)c2)cnc1C)S(=O)(=O)C1CC1 [Compound I-26, N-{5-[(cyclopropylsulfonyl)(ethyl)amino]-6-methyl-3,4′-bipyridin-2′-yl}acetamide] | > 99 | 
